One assay concerns CDK4. The note with it: MCF7 breast cancer cell lines, 30 µM; cited from earlier work.
The target in assay [1] is T1, cellular catalase in K562 cells (Homo sapiens, UniProt P04040).
T1 construct: endogenous in cells; host or cells: K562 cells
T1 sequence (P04040 2-527 limits assumed): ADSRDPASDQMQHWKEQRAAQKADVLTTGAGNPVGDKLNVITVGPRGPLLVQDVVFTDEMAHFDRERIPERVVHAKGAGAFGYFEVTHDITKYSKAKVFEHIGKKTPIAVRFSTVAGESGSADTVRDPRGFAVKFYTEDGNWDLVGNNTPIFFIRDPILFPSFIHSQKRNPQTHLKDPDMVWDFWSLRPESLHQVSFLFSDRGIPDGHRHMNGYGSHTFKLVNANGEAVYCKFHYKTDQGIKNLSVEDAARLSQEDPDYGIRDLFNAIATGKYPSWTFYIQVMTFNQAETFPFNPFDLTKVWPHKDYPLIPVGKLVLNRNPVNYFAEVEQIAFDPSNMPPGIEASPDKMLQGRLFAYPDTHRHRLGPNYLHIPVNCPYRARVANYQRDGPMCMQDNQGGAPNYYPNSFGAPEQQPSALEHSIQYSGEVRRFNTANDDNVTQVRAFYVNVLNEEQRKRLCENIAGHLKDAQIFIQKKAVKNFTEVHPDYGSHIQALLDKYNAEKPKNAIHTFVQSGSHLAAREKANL
As to the kind of experiment: Inhibition of cellular catalase activity in K562 cells. Format: cell-based. The note with it: 50 µM each, 2 hours at 37°C. As for the experimental part:
Estimation of cellular catalase activity was carried out by suspending K562 cells (5×10^4 for each sample) in 1 ml of PBS along with four catechins and 3-AT (50 µM each) separately and incubated at 37°C for 2 hours. Later, each sample was centrifuged and washed twice with PBS. The final pellet was suspended in 200 µl lysis buffer and kept on ice for 30 min. The lysate was then used in the same protocol used for evaluation of pure catalase activity.
On addition of catechins, a decrease in rate of H2O2 degradation i.e. a decrease in pure catalase activity was observed which is represented in Figure 6A. Catechins with galloyl moiety (ECG and EGCG) reduced catalase activity more than its non-gallated counterparts i.e. EGC and EC. However, Inhibition by EGCG is the closest to inhibition by known catalase inhibitor 3-AT.

The next assay deals with K562 cells. As to the kind of experiment: MTT cell viability assay. The note with it: Homo sapiens. Format: cell-based. As for the experimental part:
Cell viability of K562 cells was quantified by MTT based colorimetric assay as described elsewhere. Briefly, cells were rinsed with PBS and 0.5 mg/ml MTT was added into each sample. The mixture was incubated at 37°C for an additional 3 h. At the end of incubation period, the medium containing MTT was removed and the pellet was dissolved in 200 µl DMSO. Absorbance was measured at a wavelength of 570 nm. Cell viability was expressed as a percentage of the control culture.
The concentration (IC50) at which the K562 cell survivability was reduced to 50% was calculated for EGCG and 3-AT by MTT based cell viability assay.
For orientation: Tetrazolium assays rely on reduction of a dye to a coloured formazan, in cell work by metabolically active cells.

The target in another assay is vimentin. The note with it: read-out: dissociation constant (K d); cited from earlier work.
Assay [2] deals with T2, Catalase (from bovine liver) (Bos taurus, UniProt P00432).
T2 construct: Catalase (from bovine liver); purchased Sigma-Aldrich, St. Louis, MO, USA; host or cells: bovine liver
T2 sequence (P00432 2-527 limits assumed): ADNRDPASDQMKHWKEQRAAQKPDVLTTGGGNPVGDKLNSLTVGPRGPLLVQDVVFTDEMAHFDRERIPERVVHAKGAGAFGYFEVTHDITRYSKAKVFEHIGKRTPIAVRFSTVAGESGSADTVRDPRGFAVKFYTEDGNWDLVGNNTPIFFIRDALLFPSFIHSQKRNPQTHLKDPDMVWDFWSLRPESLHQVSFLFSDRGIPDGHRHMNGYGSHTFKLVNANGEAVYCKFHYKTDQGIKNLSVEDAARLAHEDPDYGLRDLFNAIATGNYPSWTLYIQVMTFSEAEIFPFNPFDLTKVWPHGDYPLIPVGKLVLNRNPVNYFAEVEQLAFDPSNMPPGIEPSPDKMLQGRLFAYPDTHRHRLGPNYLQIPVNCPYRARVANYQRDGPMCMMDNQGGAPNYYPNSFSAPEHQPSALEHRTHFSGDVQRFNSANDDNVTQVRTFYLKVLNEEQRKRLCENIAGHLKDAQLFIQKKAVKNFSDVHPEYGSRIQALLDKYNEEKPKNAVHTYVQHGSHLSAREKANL
As to the kind of experiment: Circular dichroism: catechin-induced conformational change in catalase. The note with it: catalase 1 µM, ligands 3 µM each, 25°C. The protocol:
All the CD experiments were carried out on a Jasco-815 automatic spectropolarimeter (Jasco International Co., Ltd. Hachioji, Japan) equipped with a peltier cuvette holder and temperature controller PFD425 L/15. The catalase concentration and path length of the cuvette used were 1 µM and 0.1 cm, respectively. The instrument parameters were set at scanning speed of 50 nm/min, bandwidth of 1.0 nm and sensitivity of 100 milli degree. The molar ellipticity values are expressed in terms of mean residue molar ellipticity, in units of deg. cm^2 dmol^−1.
CD allows investigation of the conformational changes that occur in a protein upon ligand binding. The CD spectra of catalase at pH 7.4 in the absence and in the presence of EGC, EC, ECG, EGCG, and 3-AT at 25°C are represented in Figure 5 (a – f). […] The negative band at 208 and 220 nm decreased in intensity with the addition of various catechins, which is indicative of the loss of α-helicity upon interaction. […] From the CD spectra, the effect of catechins on the secondary structure of catalase is in the following order: 3-AT>EGCG>ECG>EC>EGC.
Background: Circular dichroism is widely used to follow secondary structure.

The target of a further assay is DNA methyltransferase. The note with it: KYSE 510 human esophageal cancer cells; cited from earlier work.

A word on the IC50: it is the concentration that gives 50% inhibition. Read a high IC50 as a need for much substance. The term Ki denotes the dissociation constant of the complex between target and ligand, obtained from inhibition or displacement.

On to `O=C(O[C@@H]1Cc2c(O)cc(O)cc2O[C@@H]1c1cc(O)c(O)c(O)c1)c1cc(O)c(O)c(O)c1` [EGCG, (−)-epigallocatechin gallate], for which the “inhibition of CDK4” value in the assay with CDK4 is “inhibited”. The “inhibition of cellular catalase activity” value in assay [1] is reported as “inhibited cellular catalase in K562 cancer cells”. For the same compound, the IC50 with K562 cells is 54.5 µM; in the assay on K562 cells (conversion of the µM value), 27 µg/mL. Also, at vimentin, the Kd was 0.0033 µM. Also, in assay [2], the “order of effect on the secondary structure of catalase (loss of α-helicity)” value was 3-AT>EGCG>ECG>EC>EGC. Besides, the Ki on DNA methyltransferase is 7 µM.
